# Values of other authors as cited in publication PMC8621857, “Structural Insights into the Azole Resistance of the Candida albicans Darlington Strain Using Saccharomyces cerevisiae Lanosterol 14α-Demethylase as a Surrogate” (Journal of Fungi, 2021).
# Tested on: CaLDM I471T
# Design: method as in PMID 20625155
# Conditions: detergent solubilized CaLDM I471T single-mutation; cited from earlier work
smiles,measurement,value
CC(C)=CCC[C@@H](C)[C@H]1CC[C@@]2(C)C3=C(CC[C@]12C)[C@@]1(C)CC[C@H](O)C(C)(C)[C@@H]1CC3 [lanosterol],higher affinity for the endogenous substrate than the wild-type protein,2.4 fold
